Values of other authors, collected in patent US10640803B2, “Methods for determining chemosensitivity and chemotoxicity” (priority 2013, dated 2020).

Test system: CLL patients
Conditions: caused the halt of the study

CC1(C)CCC(c2ccc(Cl)cc2)=C(CN2CCN(c3ccc(C(=O)NS(=O)(=O)c4ccc(N[C@H](CCN5CCOCC5)CSc5ccccc5)c(S(=O)(=O)C(F)(F)F)c4)cc3)CC2)C1 [ABT-263]
adverse event in the study: occurrence of tumor lysis syndrome
